Active and inactive are the calls of the source. The calls are words filed in the database; no cut-off is given here.
Tests used:
Homo sapiens [1] = organism: Homo sapiens; test: Inhibition of MDH (unknown origin) at 1 mM using oxaloacetate as substrate by spectrophotometric analysis
[2] = Inhibition of full length Staphylococcus aureus pyruvate carboxylase expressed in Escherichia coli BL21(DE3) assessed as formation of oxaloacetic acid using pyruvate, HCO3-, ATP and NADH as substrate by malate dehydrogenase coupled enzyme assay
Homo sapiens [3] = organism: Homo sapiens; test: Inhibition of MDH (unknown origin) at 200 uM using oxaloacetate as substrate by spectrophotometric analysis
[4] = Inhibition of Staphylococcus aureus pyruvate carboxylase expressed in Escherichia coli BL21(DE3) assessed as FVB-OAA adduct formation using pyruvate as substrate by Fast violet B assay
[5] = biological target: L-lactate dehydrogenase (Homo sapiens) (UniProt V9HWB9); test: Substrate activity at lactate dehydrogenase (unknown origin) at 2 mM in presence of NADH
[6] = biological target: 72 kDa type IV collagenase (Homo sapiens) (UniProt P08253); test: Inhibition of human matrix metalloprotease 2 at 50 uM treated with enzyme for 30 mins prior to substrate addition using omniMMP fluorogenic substrate measured for 30 mins by fluorescence based assay
[7] = biological target: Carbonic anhydrase 2 (Homo sapiens) (UniProt P00918); test: Increase in human carbonic anhydrase 2 activity at 200 uM treated with enzyme for 10 mins prior to substrate addition using p-nitrophenyl acetate as substrate measured for 20 mins
Staphylococcus aureus [8] = test: (§1) Competitive inhibition of Staphylococcus aureus pyruvate carboxylase expressed in Escherichia coli BL21(DE3) treated with pyruvate as substrate prior to HCO3-, ATP and NADH addition by Michelis-Menten based double-reciprocal plot analysis
Staphylococcus aureus [9] = test: Non-competitive inhibition of Staphylococcus aureus pyruvate carboxylase expressed in Escherichia coli BL21(DE3) treated with ATP as substrate prior to HCO3-, ATP and NADH addition by Michelis-Menten based double-reciprocal plot analysis
[10] = as §1
[11] = biological target: Carbonic anhydrase 2 (Homo sapiens) (UniProt P00918); test: Inhibition of human carbonic anhydrase 2 at 200 uM treated with enzyme for 10 mins prior to substrate addition using p-nitrophenyl acetate as substrate measured for 20 mins
[12] = Mixed-type of inhibition of Staphylococcus aureus pyruvate carboxylase expressed in Escherichia coli BL21(DE3) treated with ATP as substrate prior to HCO3-, ATP and NADH addition by Michelis-Menten based double-reciprocal plot analysis
[13] = biological target: L-lactate dehydrogenase (Homo sapiens) (UniProt V9HWB9); test: Inhibition of lactate dehydrogenase (unknown origin) at 2 mM using pyruvate as substrate in presence of NADH

Chain of 72 kDa type IV collagenase (Homo sapiens) (P08253 110-660 limits assumed): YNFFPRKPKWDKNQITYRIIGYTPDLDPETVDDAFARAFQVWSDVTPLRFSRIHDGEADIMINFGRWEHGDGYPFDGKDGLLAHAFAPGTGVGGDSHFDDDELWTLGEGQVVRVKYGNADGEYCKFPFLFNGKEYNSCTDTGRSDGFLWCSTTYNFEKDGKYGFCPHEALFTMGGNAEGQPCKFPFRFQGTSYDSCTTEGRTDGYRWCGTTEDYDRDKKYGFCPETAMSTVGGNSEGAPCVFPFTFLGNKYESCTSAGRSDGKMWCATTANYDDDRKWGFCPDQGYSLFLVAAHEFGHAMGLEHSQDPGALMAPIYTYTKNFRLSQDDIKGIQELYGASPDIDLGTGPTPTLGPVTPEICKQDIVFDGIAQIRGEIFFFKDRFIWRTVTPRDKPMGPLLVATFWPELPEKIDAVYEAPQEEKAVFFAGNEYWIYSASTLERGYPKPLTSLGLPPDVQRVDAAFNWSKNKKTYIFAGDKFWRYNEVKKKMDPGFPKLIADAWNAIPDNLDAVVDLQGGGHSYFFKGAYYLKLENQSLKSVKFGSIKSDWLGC

Compound	inhibition (Homo sapiens [1]) [%]	IC50 [2] [µM]	IC50 [4] [µM]	further results
O=C(O)C(=O)Cc1ccccc1Br	–	> 1000	> 1000	–
O=C(O)C(=O)CCc1ccccc1	–	–	> 2000	–
O=C(O)C(=O)c1ccccc1 [BENZOYL FORMIC ACID]	–	–	> 3000	–
O=C(O)C(O)Cc1ccccc1 (centres undefined)	–	–	> 3000	–
O=C(O)C(=O)O	–	–	–	inhibition (Staphylococcus aureus [8]): Active; inhibition (Staphylococcus aureus [9]): Active
C=CCCC(=O)C(=O)O	–	–	> 2000	–
O=C(O)C(=O)CC1CCCCC1	–	–	> 1000	–
O=C(O)C(=O)Cc1ccccc1[N+](=O)[O-]	–	> 2000	> 2000	–
O=C(O)/C(O)=C/c1ccc([N+](=O)[O-])cc1	–	> 1000	> 1000	–
Cc1cccc(/C=C(\O)C(=O)O)c1	74	23	360	inhibition (Homo sapiens [3]): 13%

Continued, in another order:

inhibition (Homo sapiens [1]) [%]	IC50 [2] [µM]	IC50 [4] [µM]	Compound	further results
12	220	280	O=C(O)/C(O)=C/c1ccc(Cl)cc1	inhibition (Homo sapiens [3]): 2%
–	56	170	COc1ccc(/C=C(\O)C(=O)O)cc1	–
9	22	67	O=C(O)/C(O)=C/c1ccc(O)cc1	Activity [5]: Active
–	38	98	Cc1ccc(/C=C(\O)C(=O)O)cc1C	inhibition (Homo sapiens [3]): 3%
78	130	240	O=C(O)/C(O)=C/c1ccccc1	inhibition (Homo sapiens [3]): 0%
78	30	100	O=C(O)/C(O)=C/c1ccc(F)cc1	inhibition (Homo sapiens [3]): 23%
–	–	58.6	O=C(O)/C=C/c1ccc(/C=C(\O)C(=O)O)cc1	inhibition [6]: Active; Activity [7]: Active
–	96	130	O=C(O)/C(O)=C/c1ccc(C(F)(F)F)cc1	–
–	–	48	O=C(O)/C(O)=C/c1ccc(-c2ccsc2)cc1	inhibition [6]: Active
10	140	210	Cc1ccc(/C=C(\O)C(=O)O)cc1	inhibition (Staphylococcus aureus [8]): Active; inhibition (Homo sapiens [3]): -3%; inhibition (Staphylococcus aureus [9]): Active
–	–	118	O=C(O)/C=C/c1cccc(/C=C(\O)C(=O)O)c1	–
4	3.2	4.3	O=C(O)/C(O)=C/c1ccc2ccccc2n1	Ki [10]: 0.74 µM; inhibition [11]: inactive; Activity [5]: inactive; Ki [12]: 5.2 to 7.1 µM; inhibition [13]: inactive; inhibition [6]: inactive
9	81	200	O=C(O)/C(O)=C/c1ccc(Br)cc1	inhibition (Homo sapiens [3]): 0%
–	11	3	O=C(O)/C(O)=C/c1ccc(/C=C(\O)C(=O)O)cc1	inhibition [6]: Active; Activity [7]: Active
